Assays:
JAK2 = JAK2 (Homo sapiens, UniProt O60674); assay: Biochemical potency on JAK2, TR-FRET (LANCE Ultra kinase assay); conditions: ATP corresponding to Km; cell-free; read-out: JAK2 inhibitory activity (pIC50) (converted)
Method in brief: (§1)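 ULight-JAK-1 (Tyr1023) peptide phosphorylation at Km ATP, 1.5 h r.t.; substrate solution held peptide 30/50/20/10 nM and ATP 20/0.7/0.2/12 μM, enzyme solution 0.15/0.083/0.025/0.144 ng/μL (JAK1/JAK2/JAK3/TYK2). EDTA stop, Eu-PT66 antibody TR-FRET read at 665 nm; 11-point 5-fold dilutions from 20 μM; IC50 by variable-slope fit.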

[1] = tested on: pSTAT6 in BEAS-2B human cell line; assay: Inhibition of IL-13 induced pSTAT6 in BEAS; assay type: cell-based; conditions: for IC50: Homo sapiens, BEAS-2B, 0.5 h, IL-13 trigger, 30 min, parent compound; for Fold difference parent vs predicted acid metabolite: ratio=IC50 predicted acid metabolite/IC50 ester
Method in brief: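 BEAS-2B cells grown 48 h, pre-treated 30 min with compound, then stimulated 30 min with IL-13. Lysate pSTAT6 (Tyr641) measured by sandwich ELISA. Eleven 5-fold dilutions from 10 μM, in duplicate, fitted to IC50.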

JAK1 = JAK1 (Homo sapiens, UniProt P23458); assay: Biochemical potency on JAK1, TR-FRET (LANCE Ultra kinase assay); conditions: ATP corresponding to Km; cell-free; read-out: JAK1 inhibitory activity (pIC50) (converted)
Method in brief: as §1

JAK3 = molecular target: T1, JAK3 (Homo sapiens, UniProt P52333); assay: Biochemical potency on JAK3, TR-FRET (LANCE Ultra kinase assay); conditions: ATP corresponding to Km; cell-free; read-out: JAK3 inhibitory activity (pIC50) (converted)
T1 sequence (P52333 1-1124): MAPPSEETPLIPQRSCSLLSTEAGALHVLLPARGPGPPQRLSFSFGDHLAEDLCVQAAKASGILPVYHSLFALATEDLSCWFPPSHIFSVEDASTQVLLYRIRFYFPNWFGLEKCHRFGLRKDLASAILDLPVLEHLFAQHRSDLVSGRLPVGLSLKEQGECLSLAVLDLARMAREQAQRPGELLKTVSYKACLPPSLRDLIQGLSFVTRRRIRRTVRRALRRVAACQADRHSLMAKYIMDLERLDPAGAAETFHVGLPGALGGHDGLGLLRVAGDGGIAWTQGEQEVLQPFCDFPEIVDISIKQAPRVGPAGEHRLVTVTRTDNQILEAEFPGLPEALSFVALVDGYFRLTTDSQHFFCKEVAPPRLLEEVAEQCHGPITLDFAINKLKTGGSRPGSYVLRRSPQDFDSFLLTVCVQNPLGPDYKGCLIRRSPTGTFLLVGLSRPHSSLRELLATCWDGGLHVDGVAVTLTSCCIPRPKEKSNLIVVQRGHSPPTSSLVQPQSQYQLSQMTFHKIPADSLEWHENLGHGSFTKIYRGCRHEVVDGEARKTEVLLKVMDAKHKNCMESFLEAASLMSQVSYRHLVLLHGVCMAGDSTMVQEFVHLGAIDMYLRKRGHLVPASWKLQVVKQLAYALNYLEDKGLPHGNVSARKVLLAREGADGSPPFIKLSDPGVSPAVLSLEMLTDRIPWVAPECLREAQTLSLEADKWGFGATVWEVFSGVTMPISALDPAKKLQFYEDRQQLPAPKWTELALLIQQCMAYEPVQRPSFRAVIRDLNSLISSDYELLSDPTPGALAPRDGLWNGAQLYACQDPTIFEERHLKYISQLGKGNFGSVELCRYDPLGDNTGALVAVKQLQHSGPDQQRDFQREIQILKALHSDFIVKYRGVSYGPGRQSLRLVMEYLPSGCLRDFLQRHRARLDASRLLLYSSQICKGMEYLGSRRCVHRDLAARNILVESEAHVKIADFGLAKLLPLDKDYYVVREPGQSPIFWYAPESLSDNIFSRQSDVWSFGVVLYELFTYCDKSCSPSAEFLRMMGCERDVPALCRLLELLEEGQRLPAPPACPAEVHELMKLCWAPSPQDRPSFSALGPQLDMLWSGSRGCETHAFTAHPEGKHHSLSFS
Method in brief: as §1

TYK2 = TYK2 (Homo sapiens, UniProt P29597); assay: Biochemical potency on Tyk2, TR-FRET (LANCE Ultra kinase assay); conditions: ATP corresponding to Km; cell-free; read-out: TYK2 inhibitory activity (pIC50) (converted)
Method in brief: as §1

TYK2, sequence (P29597 whole entry): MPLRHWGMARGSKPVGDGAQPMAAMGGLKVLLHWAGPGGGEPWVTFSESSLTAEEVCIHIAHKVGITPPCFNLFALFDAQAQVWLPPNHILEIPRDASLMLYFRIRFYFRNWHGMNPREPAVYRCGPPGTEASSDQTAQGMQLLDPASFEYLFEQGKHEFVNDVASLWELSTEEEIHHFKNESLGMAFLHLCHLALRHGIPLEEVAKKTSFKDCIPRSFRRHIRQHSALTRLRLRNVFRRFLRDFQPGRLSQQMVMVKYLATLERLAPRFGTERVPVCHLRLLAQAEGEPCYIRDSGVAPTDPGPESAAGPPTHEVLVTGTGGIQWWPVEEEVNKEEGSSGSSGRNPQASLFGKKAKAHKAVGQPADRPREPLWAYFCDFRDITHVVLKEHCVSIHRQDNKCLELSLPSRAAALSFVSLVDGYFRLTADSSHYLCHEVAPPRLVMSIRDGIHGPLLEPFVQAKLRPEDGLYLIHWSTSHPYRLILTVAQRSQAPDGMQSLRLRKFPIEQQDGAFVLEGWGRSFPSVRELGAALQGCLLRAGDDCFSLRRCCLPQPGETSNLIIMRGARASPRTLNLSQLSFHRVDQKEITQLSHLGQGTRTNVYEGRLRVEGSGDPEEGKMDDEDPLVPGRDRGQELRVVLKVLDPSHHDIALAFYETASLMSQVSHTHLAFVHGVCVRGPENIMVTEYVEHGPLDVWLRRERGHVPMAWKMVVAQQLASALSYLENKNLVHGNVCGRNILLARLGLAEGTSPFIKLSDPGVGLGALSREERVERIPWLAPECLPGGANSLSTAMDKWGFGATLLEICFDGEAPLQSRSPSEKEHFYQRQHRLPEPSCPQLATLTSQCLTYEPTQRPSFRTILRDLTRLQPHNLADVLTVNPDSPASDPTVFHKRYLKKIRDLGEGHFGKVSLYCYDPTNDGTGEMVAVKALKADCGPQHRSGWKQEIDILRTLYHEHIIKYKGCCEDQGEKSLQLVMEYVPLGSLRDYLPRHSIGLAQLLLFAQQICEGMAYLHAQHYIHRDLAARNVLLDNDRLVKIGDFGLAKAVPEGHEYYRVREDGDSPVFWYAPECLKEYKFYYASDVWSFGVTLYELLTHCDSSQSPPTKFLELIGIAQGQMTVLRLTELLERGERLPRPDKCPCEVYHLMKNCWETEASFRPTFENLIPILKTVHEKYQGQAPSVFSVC
JAK1, sequence (P23458 whole entry): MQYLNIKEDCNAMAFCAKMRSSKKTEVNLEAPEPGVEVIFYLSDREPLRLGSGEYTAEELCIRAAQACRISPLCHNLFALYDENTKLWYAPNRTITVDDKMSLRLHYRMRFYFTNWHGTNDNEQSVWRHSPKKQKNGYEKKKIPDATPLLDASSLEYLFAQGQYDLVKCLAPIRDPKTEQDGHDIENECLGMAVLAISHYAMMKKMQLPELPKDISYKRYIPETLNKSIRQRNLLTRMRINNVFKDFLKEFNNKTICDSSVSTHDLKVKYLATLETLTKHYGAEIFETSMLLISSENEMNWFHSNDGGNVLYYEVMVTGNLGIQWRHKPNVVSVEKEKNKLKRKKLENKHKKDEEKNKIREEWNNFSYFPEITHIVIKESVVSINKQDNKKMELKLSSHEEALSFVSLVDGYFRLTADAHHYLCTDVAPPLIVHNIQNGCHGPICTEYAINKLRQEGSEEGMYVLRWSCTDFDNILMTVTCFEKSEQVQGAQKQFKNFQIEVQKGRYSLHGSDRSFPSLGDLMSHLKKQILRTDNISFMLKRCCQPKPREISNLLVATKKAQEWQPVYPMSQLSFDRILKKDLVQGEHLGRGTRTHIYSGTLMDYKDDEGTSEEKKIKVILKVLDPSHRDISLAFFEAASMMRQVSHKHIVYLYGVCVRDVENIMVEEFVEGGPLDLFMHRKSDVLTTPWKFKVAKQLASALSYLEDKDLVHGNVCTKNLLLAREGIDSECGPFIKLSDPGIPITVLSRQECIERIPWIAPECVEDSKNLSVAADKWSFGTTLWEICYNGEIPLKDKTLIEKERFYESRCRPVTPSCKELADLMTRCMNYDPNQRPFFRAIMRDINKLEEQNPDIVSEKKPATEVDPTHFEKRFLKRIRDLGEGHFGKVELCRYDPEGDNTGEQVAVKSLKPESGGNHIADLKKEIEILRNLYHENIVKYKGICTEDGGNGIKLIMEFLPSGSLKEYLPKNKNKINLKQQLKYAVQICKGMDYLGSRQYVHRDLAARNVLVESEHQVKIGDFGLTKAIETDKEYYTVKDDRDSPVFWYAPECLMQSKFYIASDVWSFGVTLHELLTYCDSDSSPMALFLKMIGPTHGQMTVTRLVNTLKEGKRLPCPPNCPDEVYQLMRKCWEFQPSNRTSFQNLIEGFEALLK
JAK2, sequence (O60674 whole entry): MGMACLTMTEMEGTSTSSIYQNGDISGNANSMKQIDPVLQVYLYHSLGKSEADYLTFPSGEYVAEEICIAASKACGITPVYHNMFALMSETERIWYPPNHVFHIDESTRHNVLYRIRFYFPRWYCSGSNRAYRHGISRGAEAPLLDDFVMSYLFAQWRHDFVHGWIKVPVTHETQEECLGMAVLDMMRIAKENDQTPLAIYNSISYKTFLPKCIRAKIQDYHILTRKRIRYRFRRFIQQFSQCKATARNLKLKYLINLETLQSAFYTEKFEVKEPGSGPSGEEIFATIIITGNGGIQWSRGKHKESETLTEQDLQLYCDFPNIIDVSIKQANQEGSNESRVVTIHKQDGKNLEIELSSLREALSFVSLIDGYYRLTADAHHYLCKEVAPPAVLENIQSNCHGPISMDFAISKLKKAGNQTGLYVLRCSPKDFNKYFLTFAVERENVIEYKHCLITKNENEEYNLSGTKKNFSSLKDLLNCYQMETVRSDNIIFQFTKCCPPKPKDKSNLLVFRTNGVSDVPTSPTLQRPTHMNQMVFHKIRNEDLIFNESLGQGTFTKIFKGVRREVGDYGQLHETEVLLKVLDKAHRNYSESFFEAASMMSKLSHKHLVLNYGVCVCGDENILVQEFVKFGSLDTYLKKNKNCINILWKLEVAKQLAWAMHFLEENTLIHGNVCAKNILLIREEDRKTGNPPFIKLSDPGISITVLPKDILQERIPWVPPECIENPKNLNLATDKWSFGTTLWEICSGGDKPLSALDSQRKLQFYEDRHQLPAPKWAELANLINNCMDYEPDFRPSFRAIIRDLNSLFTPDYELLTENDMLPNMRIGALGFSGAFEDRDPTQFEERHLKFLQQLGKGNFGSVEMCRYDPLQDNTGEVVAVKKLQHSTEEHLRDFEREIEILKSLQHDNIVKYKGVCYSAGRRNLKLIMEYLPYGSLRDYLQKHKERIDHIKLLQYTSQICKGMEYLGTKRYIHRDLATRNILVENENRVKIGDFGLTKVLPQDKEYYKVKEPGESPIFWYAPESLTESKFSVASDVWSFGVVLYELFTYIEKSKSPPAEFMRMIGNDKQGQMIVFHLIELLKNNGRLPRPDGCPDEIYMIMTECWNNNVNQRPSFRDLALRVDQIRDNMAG

Compound | IC50 (JAK2) [nM] | IC50 [1] [nM] | IC50 (JAK1) [nM] | IC50 (JAK3) [nM] | IC50 (TYK2) [nM] | Fold difference parent vs predicted acid metabolite [1]
CCOC(=O)C1(C)CCN(CCNC(=O)c2nn(-c3cc4c(cc3OC)NCCO4)c3cc(-c4cnn5cccnc45)ncc23)CC1 [Example 34, ethyl 1-(2-(1-(6-methoxy-3,4-dihydro-2H-benzo[b][1,4]oxazin-7-yl)-6-(pyrazolo[1,5-a]pyrimidin-3-yl)-1H-pyrazolo[4,3-c]pyridine-3-carboxamido)ethyl)-4-methylpiperidine-4-carboxylate] | ≤ 5.01 | 5.01 to 50.1 | ≤ 5.01 | ≤ 5.01 | 5.01 to 50.1 | 
CCCOC(=O)CN(C)CCNC(=O)c1nn(-c2cc3c(cc2OC)NCCO3)c2cc(-c3cnn4cccnc34)ncc12 [Example 6, propyl N-(2-(1-(6-methoxy-3,4-dihydro-2H-benzo[b][1,4]oxazin-7-yl)-6-(pyrazolo[1,5-a]pyrimidin-3-yl)-1H-pyrazolo[4,3-c]pyridine-3-carboxamido)ethyl)-N-methylglycinate] | ≤ 5.01 | 5.01 to 50.1 | 5.01 to 50.1 | ≤ 5.01 | > 50.1 | 
CCOC(=O)C1CN(CCNC(=O)c2nn(-c3cc4c(cc3OC)NCCO4)c3cc(-c4cnn5cccnc45)ncc23)C1 [Example 31, ethyl 1-(2-(1-(6-methoxy-3,4-dihydro-2H-benzo[b][1,4]oxazin-7-yl)-6-(pyrazolo[1,5-a]pyrimidin-3-yl)-1H-pyrazolo[4,3-c]pyridine-3-carboxamido)ethyl)azetidine-3-carboxylate] | ≤ 5.01 | 5.01 to 50.1 | ≤ 5.01 | ≤ 5.01 | 5.01 to 50.1 | 
COc1cc2c(cc1-n1nc(C(=O)NCCN3CCC(C(=O)OCC(C)(C)CO)CC3)c3cnc(-c4cnn5cccnc45)cc31)OCCN2 [Example 15, 3-hydroxy-2,2-dimethylpropyl 1-(2-(1-(6-methoxy-3,4-dihydro-2H-benzo[b][1,4]oxazin-7-yl)-6-(pyrazolo[1,5-a]pyrimidin-3-yl)-1H-pyrazolo[4,3-c]pyridine-3-carboxamido)ethyl)piperidine-4-carboxylate] | ≤ 5.01 | ≤ 5.01 | ≤ 5.01 | ≤ 5.01 | 5.01 to 50.1 | kkkk (ratio≥200)
CCOC(=O)C1CCN(CCOC(=O)Nc2nn(-c3cc4c(cc3OC)NCCS4)c3cc(-c4cnn5cccnc45)ncc23)CC1 [Example 4, ethyl 1-(2-(((1-(6-methoxy-3,4-dihydro-2H-benzo[b][1,4]thiazin-7-yl)-6-(pyrazolo[1,5-a]pyrimidin-3-yl)-1H-pyrazolo[4,3-c]pyridin-3-yl)carbamoyl)oxy)ethyl)piperidine-4-carboxylate] | ≤ 5.01 | ≤ 5.01 | ≤ 5.01 | ≤ 5.01 | ≤ 5.01 | kk (100>ratio≥10)
COc1cc2c(cc1-n1nc(C(=O)NCCN3CCC(C(=O)OC4CCOCC4)CC3)c3cnc(-c4cnn5cccnc45)cc31)OCCN2 [Example 17, tetrahydro-2H-pyran-4-yl 1-(2-(1-(6-methoxy-3,4-dihydro-2H-benzo[b][1,4]oxazin-7-yl)-6-(pyrazolo[1,5-a]pyrimidin-3-yl)-1H-pyrazolo[4,3-c]pyridine-3-carboxamido)ethyl)piperidine-4-carboxylate] | ≤ 5.01 | ≤ 5.01 | ≤ 5.01 | ≤ 5.01 | 5.01 to 50.1 | kkkk (ratio≥200)
COc1cc2c(cc1-n1nc(C(=O)NCCN3CCC(CC(=O)O[C@@H]4CCN(CCF)C4)CC3)c3cnc(-c4cnn5cccnc45)cc31)OCCN2 [Example 52, (R)-1-(2-fluoroethyl)pyrrolidin-3-yl 2-(1-(2-(1-(6-methoxy-3,4-dihydro-2H-benzo[b][1,4]oxazin-7-yl)-6-(pyrazolo[1,5-a]pyrimidin-3-yl)-1H-pyrazolo[4,3-c]pyridine-3-carboxamido)ethyl)piperidin-4-yl)acetate] | ≤ 5.01 | 5.01 to 50.1 | ≤ 5.01 | ≤ 5.01 | 5.01 to 50.1 | kkk (200>ratio≥100)
CCOC(=O)CC1CCN(CCNC(=O)c2nn(-c3cc4c(cc3OC)NCCO4)c3cc(-c4cnn5cccnc45)ncc23)CC1 [Example 35, ethyl 2-(1-(2-(1-(6-methoxy-3,4-dihydro-2H-benzo[b][1,4]oxazin-7-yl)-6-(pyrazolo[1,5-a]pyrimidin-3-yl)-1H-pyrazolo[4,3-c]pyridine-3-carboxamido)ethyl)piperidin-4-yl)acetate] | ≤ 5.01 | ≤ 5.01 | ≤ 5.01 | ≤ 5.01 | 5.01 to 50.1 | kkkk (ratio≥200)
COc1cc2c(cc1-n1nc(C(=O)NCCN3CCC(C(=O)OCC(C)(C)C#N)CC3)c3cnc(-c4cnn5cccnc45)cc31)OCCN2 [Example 25, 2-cyano-2-methylpropyl 1-(2-(1-(6-methoxy-3,4-dihydro-2H-benzo[b][1,4]oxazin-7-yl)-6-(pyrazolo[1,5-a]pyrimidin-3-yl)-1H-pyrazolo[4,3-c]pyridine-3-carboxamido)ethyl)piperidine-4-carboxylate] | ≤ 5.01 | ≤ 5.01 | ≤ 5.01 | ≤ 5.01 | 5.01 to 50.1 | kkkk (ratio≥200)
COc1cc2c(cc1-n1nc(C(=O)NCCN3CCC(CC(=O)OCC(C)(C)O)CC3)c3cnc(-c4cnn5cccnc45)cc31)OCCN2 [Example 48, 2-hydroxy-2-methylpropyl 2-(1-(2-(1-(6-methoxy-3,4-dihydro-2H-benzo[b][1,4]oxazin-7-yl)-6-(pyrazolo[1,5-a]pyrimidin-3-yl)-1H-pyrazolo[4,3-c]pyridine-3-carboxamido)ethyl)piperidin-4-yl)acetate] | ≤ 5.01 | 5.01 to 50.1 | ≤ 5.01 | ≤ 5.01 | 5.01 to 50.1 | kkkk (ratio≥200)
COc1cc2c(cc1-n1nc(C(=O)NCCN3CCC(C(=O)OC4CCCC4)CC3)c3cnc(-c4cnn5cccnc45)cc31)OCCN2 [Example 12, cyclopentyl 1-(2-(1-(6-methoxy-3,4-dihydro-2H-benzo[b][1,4]oxazin-7-yl)-6-(pyrazolo[1,5-a]pyrimidin-3-yl)-1H-pyrazolo[4,3-c]pyridine-3-carboxamido)ethyl)piperidine-4-carboxylate] | ≤ 5.01 | ≤ 5.01 | ≤ 5.01 | ≤ 5.01 | 5.01 to 50.1 | kkkk (ratio≥200)
CCOC(=O)[C@H]1C[C@@H](OC(=O)Nc2nn(-c3cc4c(cc3OC)NCCO4)c3cc(-c4cnn5cccnc45)ncc23)C1 [Example 40, ethyl (1s,3s)-3-(((1-(6-methoxy-3,4-dihydro-2H-benzo[b][1,4]oxazin-7-yl)-6-(pyrazolo[1,5-a]pyrimidin-3-yl)-1H-pyrazolo[4,3-c]pyridin-3-yl)carbamoyl)oxy)cyclobutane-1-carboxylate] | ≤ 5.01 | 5.01 to 50.1 | ≤ 5.01 | ≤ 5.01 | 5.01 to 50.1 | kk (100>ratio≥10)

From patent publication US20260337208A1, “HETEROCYCLIC DERIVATIVES AS JANUS KINASE INHIBITORS” (CHIESI FARMACEUTICI S.P.A., priority 2022, published 2026)
